Experimental findings from patent publication US20240228489A1, “POSITIVE ALLOSTERIC MODULATORS OF THE MUSCARINIC ACETYLCHOLINE RECEPTOR M1” (Vanderbilt University, priority 2021, published 2024) are described below.

Assay [1] deals with T1, human mAChR M1 (Homo sapiens, UniProt P11229).
T1 sequence (P11229 1-460): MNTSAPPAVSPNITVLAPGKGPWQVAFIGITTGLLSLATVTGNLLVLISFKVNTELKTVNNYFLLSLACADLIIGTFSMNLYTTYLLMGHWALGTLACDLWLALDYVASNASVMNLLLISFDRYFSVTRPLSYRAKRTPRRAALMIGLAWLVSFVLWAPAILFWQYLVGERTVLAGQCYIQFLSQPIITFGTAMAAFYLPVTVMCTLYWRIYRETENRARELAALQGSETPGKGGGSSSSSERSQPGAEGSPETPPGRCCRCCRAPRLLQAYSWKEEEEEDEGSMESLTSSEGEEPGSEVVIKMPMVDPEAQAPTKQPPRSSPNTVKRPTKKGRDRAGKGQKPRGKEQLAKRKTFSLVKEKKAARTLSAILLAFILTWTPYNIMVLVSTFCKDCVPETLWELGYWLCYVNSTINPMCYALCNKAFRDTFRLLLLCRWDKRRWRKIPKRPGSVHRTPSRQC
Description: mAChR M1 cell-based functional assay (calcium mobilization), agonist mode: compound alone, Emax relative to acetylcholine maximum. Conditions: for Agonist Activity Human M1 EC50 / EC50: human mAChR M1; for Emax: relative to the maximum for acetylcholine; call rule not given here. Put shortly: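 CHO-K1 cells stably expressing hM1 were loaded with Fluo-4 AM, and calcium flux was read as fluorescence ratio. Compound was added alone from an 11-point 1:3 curve, and the agonist response was fitted with a four-parameter logistic. Emax is expressed relative to the acetylcholine maximum.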

Assay [2] deals with T1, human mAChR M1. Put plainly: mAChR M1 cell-based functional assay (calcium mobilization), PAM mode: increase in the EC20 acetylcholine response. The method, boiled down:
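CHO-K1 cells stably expressing hM1, Fluo-4 loaded, read by FDSS calcium flux at 1 Hz. Compound (11-point 1:3 CRC) added at 4 s, EC20 acetylcholine at 144 s, EC80 at 230 s. PAM activity taken as concentration-dependent increase in EC20 ACh response, fitted by four-parameter logistic for EC50/Emax.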

Broadly, the Emax is the size of the effect at its maximum, as opposed to the concentration needed. In general, EC50 refers to the concentration needed to bring the measured effect to its halfway point. Consider `[2H]C1([2H])c2ncccc2C(=O)N1Cc1ccc(-c2ccc3nn(C)cc3c2C)cc1F` [Compound 242, 6-(4-(2,4-dimethyl-2H-indazol-5-yl)-2-fluorobenzyl)-6,7-dihydro-5H-pyrrolo[3,4-b]pyridin-5-one-7,7-d2], for which, on human mAChR M1 [1], the “Agonist Activity Human M1 EC50” value was “Inactive” and the maximal response (Emax) turned out to be 3%. At human mAChR M1 [2], the EC50 is over 10000 nM and the maximal response (Emax) amounted to 43%.

Consider `[2H]C1([2H])c2ncccc2C(=O)N1Cc1c(F)cc(-c2ccc(OC)c3nn(C)cc23)cc1F` [Compound 39, 6-(2,6-difluoro-4-(7-methoxy-2-methyl-2H-indazol-4-yl)benzyl)-6,7-dihydro-5H-pyrrolo[3,4-b]pyridin-5-one-7,7-d2], for which, at human mAChR M1 [1], the “Agonist Activity Human M1 EC50” value is given as “Inactive” and the Emax is 9%. Further, at human mAChR M1 [2], the concentration for a half-maximal effect (EC50) was found to be 112 nM and the maximal response (Emax) is 85%.

Consider `[2H]C1([2H])c2ncccc2C(=O)N1Cc1c(F)cc(-c2ccc(Cl)c3nn(C)cc23)cc1C1CC1` [Compound 206, 6-(4-(7-chloro-2-methyl-2H-indazol-4-yl)-2-cyclopropyl-6-fluorobenzyl)-6,7-dihydro-5H-pyrrolo[3,4-b]pyridin-5-one-7,7-d2], for which, at human mAChR M1 [1], the half-maximal effective concentration (EC50) was determined as 9700 nM and the maximal response (Emax) stood at 38%. Also, on human mAChR M1 [2], the EC50 is 335 nM and the Emax was 81%.

As for `[2H]C1([2H])c2ncccc2C(=O)N1Cc1ccc(-c2ccc(OCC3CCO3)c3nn(C)cc23)cc1F` (stereo not shown) [Compound 145, 6-(2-fluoro-4-(2-methyl-7-(oxetan-2-ylmethoxy)-2H-indazol-4-yl)benzyl)-6,7-dihydro-5H-pyrrolo[3,4-b]pyridin-5-one-7,7-d2], at human mAChR M1 [1], the EC50 was at least 10000 nM and the Emax stood at 16%. Moreover, on human mAChR M1 [2], the EC50 worked out at 1070 nM and the Emax stood at 73%.

For the compound `[2H]C1([2H])c2ncccc2C(=O)N1Cc1c(F)cc(-c2cn(C)c(=O)c3c2cnn3C)cc1F` [Compound 80, 4-(3,5-difluoro-4-((5-oxo-5,7-dihydro-6H-pyrrolo[3,4-b]pyridin-6-yl-7,7-d2)methyl)phenyl)-1,6-dimethyl-1,6-dihydro-7H-pyrazolo[3,4-c]pyridin-7-one], at human mAChR M1 [1], the “Agonist Activity Human M1 EC50” value is “Inactive” and the Emax is 1%. Further, on human mAChR M1 [2], the EC50 was 2230 nM and the Emax was 59%.

Turning to `[2H]C1([2H])c2ncccc2C(=O)N1Cc1c(F)cc(-c2cc3cn(C)nc3cc2C)cc1F` [Compound 6, 6-(4-(2,6-dimethyl-2H-indazol-5-yl)-2,6-difluorobenzyl)-6,7-dihydro-5H-pyrrolo[3,4-b]pyridin-5-one-7,7-d2], on human mAChR M1 [1], the “Agonist Activity Human M1 EC50” value is on record as “Inactive” and the maximal effect (Emax) came out at 7%. Moreover, on human mAChR M1 [2], the EC50 is 4090 nM and the Emax stood at 48%.

In the case of `[2H]C1([2H])c2ncccc2C(=O)N1Cc1ccc(-c2cc(C)c3nn(C)cc3c2)cc1` [Compound 17, 6-(4-(2,7-dimethyl-2H-indazol-5-yl)benzyl)-6,7-dihydro-5H-pyrrolo[3,4-b]pyridin-5-one-7,7-d2], on human mAChR M1 [1], the “Agonist Activity Human M1 EC50” value is “Inactive” and the maximum response (Emax) stood at 4%. Also, at human mAChR M1 [2], the 50% effective concentration (EC50) came out at 853 nM and the Emax is 79%.

`[2H]C1([2H])c2ncccc2C(=O)N1Cc1ccc(-c2cccc3nn(C([2H])([2H])[2H])cc23)cc1C` [Compound 46, 6-(2-methyl-4-(2-(methyl-d^3)-2H-indazol-4-yl)benzyl)-6,7-dihydro-5H-pyrrolo[3,4-b]pyridin-5-one-7,7-d2]: at human mAChR M1 [1], the “Agonist Activity Human M1 EC50” value is listed as “Inactive” and the Emax was determined as 9%. Besides, at human mAChR M1 [2], the EC50 turned out to be 681 nM and the maximal response (Emax) stood at 77%.

As for `[2H]C1([2H])c2ncccc2C(=O)N1Cc1c(F)cc(-c2ccc(C)c3nn(C)cc23)cc1Cl` [Compound 162, 6-(2-chloro-4-(2,7-dimethyl-2H-indazol-4-yl)-6-fluorobenzyl)-6,7-dihydro-5H-pyrrolo[3,4-b]pyridin-5-one-7,7-d2], on human mAChR M1 [1], the “Agonist Activity Human M1 EC50” value is on record as “Inactive” and the Emax turned out to be 2%. Also, at human mAChR M1 [2], the EC50 came out at 435 nM and the maximum response (Emax) was determined as 81%.

Turning to `[2H]C1([2H])c2ncccc2C(=O)N1Cc1c(F)cc(-c2cc(C(F)F)cc3nn(C)cc23)cc1F` [Compound 81, 6-(4-(6-(difluoromethyl)-2-methyl-2H-indazol-4-yl)-2,6-difluorobenzyl)-6,7-dihydro-5H-pyrrolo[3,4-b]pyridin-5-one-7,7-d2], at human mAChR M1 [1], the “Agonist Activity Human M1 EC50” value was “Inactive” and the Emax came out at 2%. Besides, at human mAChR M1 [2], the 50% effective concentration (EC50) came to 159 nM and the Emax is 48%.

With `[2H]C1([2H])c2ncccc2C(=O)N1Cc1c(F)cc(-c2ccc(O)c3nn(C([2H])([2H])[2H])cc23)cc1F` [Compound 132, 6-(2,6-difluoro-4-(7-hydroxy-2-(methyl-d3)-2H-indazol-4-yl)benzyl)-6,7-dihydro-5H-pyrrolo[3,4-b]pyridin-5-one-7,7-d2], on human mAChR M1 [1], the EC50 turned out to be 7930 nM and the Emax came to 47%. Also, at human mAChR M1 [2], the EC50 is 195 nM and the Emax worked out at 77%.

As to `[2H]C1([2H])c2ncccc2C(=O)N1Cc1c(C)cc(-c2cccc3nn(C([2H])([2H])[2H])cc23)cc1F` (single isomer, unassigned) [Compound 156, 6-(2-Fluoro-6-methyl-4-(2-(methyl-d3)-2H-indazol-4-yl)benzyl)-6,7-dihydro-5H-pyrrolo[3,4-b]pyridin-5-one-7,7-d2], on human mAChR M1 [1], the concentration for a half-maximal effect (EC50) was 8160 nM and the maximal response (Emax) came to 33%. Besides, at human mAChR M1 [2], the concentration for a half-maximal effect (EC50) stood at 194 nM and the Emax turned out to be 85%.

For the compound `[2H]C1([2H])c2ncccc2C(=O)N1Cc1c(F)cc(-c2ccc(OC(C)C)c3nn(C)cc23)cc1F` [Compound 98, 6-(2,6-difluoro-4-(7-isopropoxy-2-methyl-2H-indazol-4-yl)benzyl)-6,7-dihydro-5H-pyrrolo[3,4-b]pyridin-5-one-7,7-d2], the EC50 came out at 8390 nM at human mAChR M1 [1] and 286 nM at human mAChR M1 [2]. Besides, the Emax at human mAChR M1 [1] was 21%; on human mAChR M1 [2], 76%.

With `[2H]C1([2H])c2ncccc2C(=O)N1Cc1c(F)cc(-c2ccc(F)c3nn(C)cc23)cc1OCC(C)C` [Compound 214, 6-(2-fluoro-4-(7-fluoro-2-methyl-2H-indazol-4-yl)-6-isobutoxybenzyl)-6,7-dihydro-5H-pyrrolo[3,4-b]pyridin-5-one-7,7-d2], on human mAChR M1 [1], the “Agonist Activity Human M1 EC50” value is reported as “Inactive” and the Emax is 2%. For the same compound, on human mAChR M1 [2], the EC50 is 1290 nM and the Emax stood at 79%.

On to `[2H]C1([2H])c2ncccc2C(=O)N1Cc1c(Cl)cc(-c2cccc3nn(C)cc23)cc1C1CC1` [Compound 219, 6-(2-chloro-6-cyclopropyl-4-(2-methyl-2H-indazol-4-yl)benzyl)-6,7-dihydro-5H-pyrrolo[3,4-]pyridin-5-one-7,7-d2], for which, on human mAChR M1 [1], the “Agonist Activity Human M1 EC50” value is on record as “Inactive” and the Emax came out at 8%. Moreover, on human mAChR M1 [2], the EC50 came out at 490 nM and the Emax was found to be 89%.

As to `[2H]C1([2H])c2ncccc2C(=O)N1Cc1c(F)cc(-c2cc(F)cc3nn(C)cc23)cc1F` [Compound 59, 6-(2,6-difluoro-4-(6-fluoro-2-methyl-2H-indazol-4-yl)benzyl)-6,7-dihydro-5H-pyrrolo[3,4-b]pyridin-5-one-7,7-d2], on human mAChR M1 [1], the “Agonist Activity Human M1 EC50” value is reported as “Inactive” and the Emax worked out at 2%. At human mAChR M1 [2], the 50% effective concentration (EC50) turned out to be 222 nM and the maximum response (Emax) worked out at 59%.

In the case of `[2H]C1([2H])c2ncccc2C(=O)N1Cc1c(F)cc(-c2cc(OC)c3nn(C)cc3c2)cc1F` [Compound 76, 6-(2,6-difluoro-4-(7-methoxy-2-methyl-2H-indazol-5-yl)benzyl)-6,7-dihydro-5H-pyrrolo[3,4-b]pyridin-5-one-7,7-d2], at human mAChR M1 [1], the half-maximal effective concentration (EC50) was 3740 nM and the Emax turned out to be 29%. In addition, on human mAChR M1 [2], the half-maximal effective concentration (EC50) worked out at 58 nM and the Emax was 78%.

For the compound `[2H]C([2H])([2H])Oc1cnc2c(c1)C(=O)N(Cc1c(F)cc(-c3ccc4nn(C)cc4c3)cc1F)C2([2H])[2H]` [Compound 112, 6-(2,6-difluoro-4-(2-methyl-2H-indazol-5-yl)benzyl)-3-(methoxy-d3)-6,7-dihydro-5H-pyrrolo[3,4-b]pyridin-5-one-7,7-d2], at human mAChR M1 [1], the “Agonist Activity Human M1 EC50” value was “Inactive” and the Emax turned out to be 2%. For the same compound, on human mAChR M1 [2], the EC50 was determined as 76 nM and the Emax is 63%.

Consider `[2H]C1([2H])c2ncccc2C(=O)N1Cc1c(F)cc(-c2cccc3nn(C)cc23)cc1C(F)(F)F` [Compound 225, 6-(2-fluoro-4-(2-methyl-2H-indazol-4-yl)-6-(trifluoromethyl)benzyl)-6,7-dihydro-5H-pyrrolo[3,4-b]pyridin-5-one-7,7-d2], for which, at human mAChR M1 [1], the “Agonist Activity Human M1 EC50” value is “Inactive” and the Emax came out at 3%. At human mAChR M1 [2], the EC50 is 1370 nM and the maximal effect (Emax) was determined as 58%.
